Results as given in ChEMBL document CHEMBL3046422, “Insecticidal activity of imidacloprid derivatives with an alkoxy group at the C5 position of the pyridine ring” (2006).

Assays:
Type in all cases: functional
Periplaneta americana [1] = assay: Insecticidal activity against adult male Periplaneta americana (American cockroach) dosed through injection into abdomen assessed as mortality measured 24 hr post dose pre-treated with 50 ug metabolic inhibitor PB and 50 ug NIA16388 1 hr before compound injection
Periplaneta americana [2] = assay: Insecticidal activity against adult male Periplaneta americana (American cockroach) dosed through injection into abdomen assessed as mortality measured 24 hr post dose pre-treated with 50 ug metabolic inhibitor PB 1 hr before compound injection
Periplaneta americana [3] = assay: Insecticidal activity against adult male Periplaneta americana (American cockroach) dosed through injection into abdomen assessed as mortality measured 24 hr post dose

Row | SMILES | log(1/MLD) (Periplaneta americana [1]) | log(1/MLD) (Periplaneta americana [2]) | log(1/MLD) (Periplaneta americana [3])
1 | COc1cc(CN2CCN/C2=N\[N+](=O)[O-])cnc1Cl | 8.74 | 8.74 | 7.43
2 | CCOc1cc(CN2CCN/C2=N\[N+](=O)[O-])cnc1Cl | 8.08 | 7.87 | 7.07
3 | CCCOc1cc(CN2CCN/C2=N\[N+](=O)[O-])cnc1Cl | 6.89 | 6.89 | <6.86
4 | CC(C)Oc1cc(CN2CCN/C2=N\[N+](=O)[O-])cnc1Cl | 8.1 | 7.89 | 6.99
5 | CCCCOc1cc(CN2CCN/C2=N\[N+](=O)[O-])cnc1Cl | 8.12 | 8.12 | 7.12
6 | CCCCCOc1cc(CN2CCN/C2=N\[N+](=O)[O-])cnc1Cl | 6.46 | 6.46 | 5.86
7 | O=[N+]([O-])/N=C1\NCCN1Cc1cnc(Cl)c(Cl)c1 [5-CHLOROIMIDACLOPRID] | 9.05 | 9.05 | 8.35
8 | O=[N+]([O-])/N=C1/NCCN1Cc1cnc(Cl)c(F)c1 [5-FLUOROIMIDACLOPRID] | 9.91 | 9.91 | 8.82
9 | O=[N+]([O-])/N=C1\NCCN1Cc1ccc(Cl)nc1 [IMIDACLOPRID] | 10.15 | 10.15 | 8.96
